# How the values were obtained:
# Format in all cases: cell-based, mouse
# [1] = system: lipoprotein lipase (LPL); experiment: Northern blotting for lipoprotein lipase in M2 cells; conditions: 10 μM Tro with 10 μM 20S, 10 days (FIGS. 7C and D)
# Protocol: RNA isolation and Northern blot analysis - Following treatment of cells under appropriate experimental conditions, total RNA was isolated using the RNA isolation kit from Stratagene (La Jolla, Calif., U.S.A.). Total RNA ([…]) was run on a 1% agarose/formaldehyde gel and transferred to Duralon-UV membranes (Strategene, CA, U.S.A.) and cross-linked with UV light. The membranes were hybridized overnight at 60° C. with ^32P-labeled mouse osteocalcin cDNA probe, mouse lipoprotein lipase (LPL), mouse adipocyte protein 2 (aP2) PCR-generated probes, human 28S or 18S rRNA probes obtained from Geneka Biotechnology (Montreal, Quebec, Canada) and Maxim Biotech (San Francisco, CA, U.S.A.), respectively. […] The extent of gene induction was determined by densitometry.
# Test 2: (A) M2 cells at confluence were treated in RPMI containing 10% FBS with control vehicle or 10 μM troglitazone (Tro) in the absence or presence of 10 μM 20S or 22S oxysterols. After 10 days, adipocytes were visualized by oil Red O staining and quantified by light microscopy, shown in (B). […] After 10 days, total RNA was isolated and analyzed for lipoprotein lipase (LPL), adipocyte P2 gene (aP2) or 18S rRNA expression by Northern blotting as described (Ref). […]
# [2] = system: ERK1; experiment: Western blot for pERK or ERK in M2 cells; conditions: 5 μM 20S for 1, 4, or 8 hours (FIG. 10A)
# Protocol: (§1) Western blot analysis—After treatments, cells were lysed in lysis buffer, protein concentrations determined using the Bio-Rad protein assay (Hercules, Calif. U.S.A.), and SDS-PAGE performed as previously described. Probing for native and phosphorylated ERKs was performed as previously reported.
# (§2) (A) M2 cells at confluence were pretreated for four hours with RPMI containing 1% FBS, followed by treatment with control vehicle or 5 μM 20S oxysterol for 1, 4, or 8 hours. Next total cell extracts were prepared and analyzed for levels of native or phosphorylated ERK (pERK) using specific antibodies as previously described. Data from a representative of four experiments are shown, each treatment shown in duplicate samples. (B) M2 cells at confluence were pretreated for 2 hours with control vehicle (C) or 20 μM PD98059 (PD) in osteogenic medium as previously described. Next, a combination of 22R and 20S oxysterols (RS, 5 μM each) were added to appropriate wells as indicated. After 10 days of incubation, matrix mineralization was quantified by the ^45Ca incorporation assay as previously described. Data from a representative of three experiments are reported as the mean±SD of quadruplicate determinations, normalized to protein concentration (p<0.01 for RS vs. RS+PD). […] After 10 days, adipocytes were visualized by oil Red O staining and quantified by light microscopy as previously described. […]
# [3] = system: ERK2; experiment: Western blot for pERK or ERK in M2 cells; conditions: 5 μM 20S for 1, 4, or 8 hours (FIG. 10A)
# Protocol: as §1, §2
structure (smiles),measurement,setting,value
"CC(C)CCC[C@](C)(O)[C@H]1CC[C@H]2[C@@H]3CC=C4C[C@@H](O)CC[C@]4(C)[C@H]3CC[C@@]21C [20S, 20(S)-hydroxycholesterol]",expression of lipoprotein lipase (LPL),[1],inhibition of the expression
same,activation of ERK1,[2],sustained activation
same,activation of ERK2,[3],sustained activation

# Source: US9532994B2, “Agents and methods for enhancing bone formation by oxysterols in combination with bone morphogenic proteins” (THE REGENTS OF THE UNIVERSITY OF CALIFORNIA, priority 2003, dated 2017)
